In patent US10603357B2, “Therapeutic TREM-1 peptides” (Universite de Lorraine, priority 2004, dated 2020):

Key:
[1] = test system: NF-κB p50 and p65; assay: NF-κB activity in monocytes (ELISA-based assay); assay type: cell-based, human; conditions: P5 100 ng/mL, 24 hours
Procedure: Monocytes were cultured for 24 hours in the presence of E. coli LPS (O111:B4, 1 μg/mL), anti-TREM-1 mAb (10 μg/mL) and/or P5 (100 ng/mL) as indicated and the levels of NFκB p50 and p65 were determined using an ELISA-based assay. Experiments were performed in triplicate and data are expressed as means of optical densities (SEM).
In order to activate monocytes through TREM-1, an anti-TREM-1 agonist monoclonal antibody (R&D Systems) was added as follows: flat-bottom plates were precoated with 10 μg/mL anti-TREM-1 per well. After thorough washing in phosphate buffered saline (PBS), the monocyte suspensions were added at a similar concentration as above. Some experiments were performed in the presence of protease inhibitors (PMSF and Protease Cocktail Inhibitor; Invitrogen). Cell-free supernatants were assayed for the production of TNF-α and IL-1β by ELISA according to the recommendations of the manufacturer (BD Biosciences, San Diego, USA). To address the effect of P5 on NF-κB activity in monocytes, an ELISA-based assay was performed (BD Mercury™ Transfactor Kit, BD Biosciences). […] Whole-cell extracts were then prepared and levels of NF-κB p50 and p65 were determined according to the recommendations of the manufacturer. All experiments were performed in triplicate and data are expressed as means (SEM). Identification and Quantitation of sTREM-1 Release

[2] = test system: BALB/c mice; assay: CLP polymicrobial sepsis model in mice (Example 3); assay type: in vivo, mouse; conditions: for Serum IL-1β / Serum TNF-α / Serum sTREM-1: 24 hours after CLP
Procedure: Male Balb/C mice (20 to 23 g) were randomly grouped and treated with normal saline (n=14) or the control peptide (n=14, 100 μg) or with P5 (100 μg) in a single infection at HO (n=18), H+4 (n=18) or H+24 (n=18). The last group of mice (n=18) was treated with repeated injections of P5 (100 μg) at H+4, H+8 and H+24.
Mice (n=15 per group) were treated with a single injection of normal saline or 10 μg, 20 μg, 50 μg, 100 μg or 200 μg of P5 at HO after the CLP and monitored for survival.
Mice (5 per group) were killed under anaesthesia at 24 hours after CLP. Bacterial counts in peritoneal lavage fluid and blood were determined and results are expressed as CFU per mL of blood and CFU per mouse for the peritoneal lavage.
Male Balb/C mice (7 to 9 weeks, 20 to 23 g) were anaesthetized by i.p. administration of ketamine and xylazine in 0.2 mL sterile pyrogen-free saline. The caecum was exposed through a 1.0 cm abdominal midline incision and subjected to a ligation of the distal half followed by two punctures with a G21 needle. A small amount of stool was expelled from the punctures to ensure patency. The caecum was replaced into the peritoneal cavity and the abdominal incision closed in two layers. After surgery all mice were injected s.c. with 0.5 ml of physiologic saline solution for fluid resuscitation and s.c. every 12 h with 1.25 mg (i.e. 50 μg/g) of imipenem. The animals were randomly grouped and treated with normal saline (n=14), the control peptide (n=14, 100 μg) or P5 (100 μg) in a single injection at HO (n=18), H+4 (n=18) or H+24 (n=18). The last group of mice (n=18) was treated with repeated injections of P5 (100 μg) at H+4, H+8 and H+24. All treatments were diluted into 500 μl of normal saline and administered i.p. The Inventors next sought to determine the effect of various doses of P5. For this purpose, mice (n=15 per group) were treated with a single injection of normal saline or 10 μg, 20 μg, 50 μg 100 μg or 200 μg of P5 at HO after the CLP and monitored for survival. Five additional animals per group were killed under anaesthesia 24 hours after CLP for the determination of bacterial count and cytokines levels. Peritoneal lavage fluid was obtained using 2 mL RPMI 1640 (Life Technologies) and blood was collected by cardiac puncture. Concentrations of TNF-α and IL-1β in the serum were determined by ELISA (BD Biosciences). For the assessment of bacterial counts, blood and peritoneal lavage fluid were plated in serial log dilutions on tryptic soy supplemented with 5% sheep blood agar plates. After plating, tryptic soy agar plates were incubated at 37° C. aerobically for 24 hours, and anaerobically for 48 hours. Results are expressed as CFU per mL of blood and CFU per mouse for the peritoneal lavage.

Sequence: LQVTDSGLYRCVIYHPP [P5]
- effect of LPS on NF-κB activation ([1]; LPS 1 μg/mL): did not alter
- NF-κB activation induced by the engagement of TREM-1 ([1]; anti-TREM-1 mAb 10 μg/mL): inhibited
- effect on survival of repeated injections ([2]; 100 μg at H+4, H+8 and H+24 after CLP): more favourable effect on survival
- Serum IL-1β ([2]; 10 μg at H0): 356 ± 62 pg/mL
- Serum TNF-α ([2]; 10 μg at H0): 110 ± 11 pg/mL
- Serum sTREM-1 ([2]; 10 μg at H0): 43 ± 8 ng/mL
- Serum IL-1β ([2]; 20 μg at H0): 324 ± 58 pg/mL
- Serum TNF-α ([2]; 20 μg at H0): 89 ± 10 pg/mL
- Serum sTREM-1 ([2]; 20 μg at H0): 58 ± 8 ng/mL
- Serum IL-1β ([2]; 50 μg at H0): 57 ± 11 pg/mL
- Serum TNF-α ([2]; 50 μg at H0): 24 ± 6 pg/mL
- Serum sTREM-1 ([2]; 50 μg at H0): 93 ± 10 ng/mL
- Serum IL-1β ([2]; 100 μg at H0): 31 ± 3 pg/mL
- Serum TNF-α ([2]; 100 μg at H0): 20 ± 3 pg/mL
- Serum sTREM-1 ([2]; 100 μg at H0): 118 ± 12 ng/mL
- Serum IL-1β ([2]; 200 μg at H0): 37 ± 8 pg/mL
- Serum TNF-α ([2]; 200 μg at H0): 21 ± 7 pg/mL
- Serum sTREM-1 ([2]; 200 μg at H0): 158 ± 13 ng/mL
